Assay results reported in patent US20230286969A1, “AROMATIC SPIRO RING AMIDE DERIVATIVES FOR THE TREATMENT AND PROPHYLAXIS OF HEPATITIS B VIRUS INFECTION” (Hoffmann-La Roche Inc., priority 2020, published 2023).
Where two headings read alike, the source gives them in different places.

Columns and labels:
Format in all cases: cell-based
HBeAg = experiment: PHH HBV natural infection assay, HBeAg (alphalisa)
Method: (§1) Detailed procedures regarding primary human hepatocyte (PHH) HBV natural infection assay are described as below. One tube of frozen PHH (10 million cells) is thawed in 37° C. water bath and then transferred to 20 mL of PHH thawing medium (Sigma, InVitroGRO HT Medium, Cat. S03319) with gently mixing. The cells were then centrifuged at […] for 5 min, the supernatant was discarded and the tube was refilled with 25 mL of PHH plating medium (Sigma, InVitroGRO CP Medium, Cat. S03317). The tube was shaken very gently to re-suspend all cells, and then 50 μl of cells were transferred to each well 384-well collagen I coated plate with appropriate liquid handling equipment, e.g. Integra VIAFLO384 or Agilent Bravo. The cells were then cultured for 24 hours in a cell incubator. For HBV infection, after PHH attachment on the culture plate, the plating medium was removed and replenished with PHH culture medium containing HBV virus. The PHH culture medium was prepared with Dulbecco's Modified Eagle Medium (DMEM)/F12 (1:1 in volume ratio) containing 10% fetal bovine serum (Gibco, Cat. 10099141), 5 ng/mL human epidermal growth factor (Gibco, Cat.PHG0311L), 20 ng/mL dexamethasone (Sigma, Cat.D4902-100 mg), 250 ng/mL human recombinant insulin (Gibco, Cat.41400045) and 100 U/mL penicillin. HBV virus at 200 genome equivalent (GE) per cell with 4% PEG8000 (Sigma, Cat.P1458) containing culture medium were added to the PHH culture medium for infection. The cells were then cultured for 24 hours in cell incubator. Then the cell culture supernatant was removed. The HBV-infected PHH were cultured with sandwich culture method with PHH culture medium containing 1% DMSO and 0.25 mg/mL matrix gel for 72 hours. The supernatant was then refreshed with PHH culture medium containing different concentrations of testing compounds for two times with 72-hour interval. At the end of treatment, the supernatant was collected for viral markers measurements, including HBsAg, HBeAg, HBV DNA and cytotoxicity. HBsAg and HBeAg were detected using alphalisa method using their specific antibodies. For HBV DNA detection, HBV DNA Quantitative Fluorescence Diagnostic Kit (Sansure Biotech Inc.) was used following the manufacture's protocol. Cytotoxicity was determined using Cell Counting Kit-8 (CCK8, Dojindo Molecular Technologies, Inc.).
(§2) The compounds of the present invention were tested for their capacity to inhibit HBsAg and HBeAg as described herein.

HBsAg = experiment: PHH HBV natural infection assay, HBsAg (alphalisa)
Method: as §1, §2

[1] = PHH natural infection assay, cytotoxicity (Cell Counting Kit-8); details: human, HBV-infected primary human hepatocytes, CCK8, end of treatment
Method: as §1

[2] = read-out: HbeAg IC50, HBV-infected primary human hepatocytes, supernatant, compound medium refreshed two times with 72-hour interval
[3] = read-out: HBsAg IC50, HBV-infected primary human hepatocytes, supernatant, compound medium refreshed two times with 72-hour interval
[4] = Hepatitis B virus, Hepatocyte, 72 h, read-out: HbeAg IC50, HBV-infected primary human hepatocytes, supernatant, compound medium refreshed two times with 72-hour interval
[5] = Hepatitis B virus, Hepatocyte, 72 h, read-out: HBsAg IC50, HBV-infected primary human hepatocytes, supernatant, compound medium refreshed two times with 72-hour interval

| SMILES | IC50 (HBeAg; [2]) [µM] | IC50 (HBsAg; [3]) [µM] | CC50 at 144 h [1] [µM] | IC50 (HBeAg; [4]) [µM] | IC50 (HBsAg; [5]) [µM] |
| --- | --- | --- | --- | --- | --- |
| [H][C@]1(NC(=O)c2ccc(S(C)(=O)=O)o2)C[C@@]2(C1)C[C@]([H])(c1nc3cc(Cl)ccc3o1)C2 (single isomer, unassigned) [Example 15-a, (Sa)—N-[6-(5-chloro-1,3-benzoxazol-2-yl)spiro[3.3]heptan-2-yl]-5-methylsulfonyl-furan-2-carboxamide] | 3.94 | 5.19 | 84 |  |  |
| [H][C@]1(NC(=O)c2ccc(S(C)(=O)=O)o2)C[C@]2(C1)C[C@]([H])(c1nc3cc(Cl)ccc3o1)C2 (single isomer, unassigned) [Example 15-b, (Ra)—N-[6-(5-chloro-1,3-benzoxazol-2-yl)spiro[3.3]heptan-2-yl]-5-methylsulfonyl-furan-2-carboxamide] | 0.694 | 0.896 | 35.8 |  |  |
| O=C(NC1CC2(C1)CC(c1nc3cc(Cl)ccc3o1)C2)c1ccc([S+]([O-])CC2CC2)o1 (single isomer, unassigned) [Example 19-a, N-[6-(5-chloro-1,3-benzoxazol-2-yl)spiro[3.3]heptan-2-yl]-5-(cyclopropylmethylsulfinyl)furan-2-carboxamide] | 0.067 | 0.088 | > 10 |  |  |
| NS(=O)(=O)c1ccc(C(=O)NC2CC3(C2)CC(c2nc4cc(Cl)ccc4o2)C3)o1 (single isomer, unassigned) [Example 29-a, N-[6-(5-chloro-1,3-benzoxazol-2-yl)spiro[3.3]heptan-2-yl]-5-sulfamoyl-furan-2-carboxamide] | 2.28 | 5.12 | > 100 |  |  |
| O=C(NC1CC2(C1)CC(c1nc3cc(Cl)cnc3o1)C2)c1ccc(S(=O)(=O)C2CC2)o1 (single isomer, unassigned) [Example 49-a, N-[6-(6-chlorooxazolo[5,4-b]pyridin-2-yl)spiro[3.3]heptan-2-yl]-5-cyclopropylsulfonyl-furan-2-carboxamide] | 4.25 | 4.17 | 81.1 |  |  |
| CS(=N)(=O)c1ccc(C(=O)NC2CC3(C2)CC(c2nc4cc(Cl)ccc4o2)C3)o1 (single isomer, unassigned) [Example 52-a, N-[6-(5-chloro-1,3-benzoxazol-2-yl)spiro[3.3]heptan-2-yl]-5-(methylsulfonimidoyl)furan-2-carboxamide] | 1.77 | 4.26 | > 100 |  |  |
| N=S(=O)(c1ccc(C(=O)NC2CC3(C2)CC(c2nc4cc(Cl)cnc4o2)C3)o1)C1CC1 (single isomer, unassigned) [Example 64-a, N-[6-(6-chlorooxazolo[5,4-b]pyridin-2-yl)spiro[3.3]heptan-2-yl]-5-(cyclopropylsulfonimidoyl)furan-2-carboxamide] | 4.81 | 8.45 | > 10 |  |  |
| CC(C)C(=O)NS(=O)(=O)c1ccc(C(=O)N[C@H]2CC3(C2)C[C@H](c2nc4cc(Cl)ccc4o2)C3)o1 (single isomer, unassigned) [Example 70, (Sa)—N-[6-(5-chloro-1,3-benzoxazol-2-yl)spiro[3.3]heptan-2-yl]-5-(2-methylpropanoylsulfamoyl)furan-2-carboxamide, or (Ra)—N-[6-(5-chloro-1,3-benzoxazol-2-yl)spiro[3.3]heptan-2-yl]-5-(2-methylpropanoylsulfamoyl)furan-2-carboxamide] |  |  | > 100 | 0.376 | 0.361 |
| O=C(N[C@H]1CC2(C1)C[C@H](c1nc3cc(Cl)ccc3o1)C2)c1ccc(S(=O)(=O)NC(=O)C2CC2)o1 (single isomer, unassigned) [Example 71, (Sa)—N-[6-(5-chloro-1,3-benzoxazol-2-yl)spiro[3.3]heptan-2-yl]-5-(cyclopropanecarbonylsulfamoyl)furan-2-carboxamide, or (Ra)—N-[6-(5-chloro-1,3-benzoxazol-2-yl)spiro[3.3]heptan-2-yl]-5-(cyclopropanecarbonylsulfamoyl)furan-2-carboxamide] |  |  | > 100 | 3.28 | 3.66 |
| O=C(N[C@H]1CC2(C1)C[C@H](c1nc3cc(Cl)ccc3o1)C2)c1ccc(S(=O)(=O)NC(=O)C2CCC2)o1 (single isomer, unassigned) [Example 72, (Sa)—N-[6-(5-chloro-1,3-benzoxazol-2-yl)spiro[3.3]heptan-2-yl]-5-(cyclobutanecarbonylsulfamoyl)furan-2-carboxamide, or (Ra)—N-[6-(5-chloro-1,3-benzoxazol-2-yl)spiro[3.3]heptan-2-yl]-5-(cyclobutanecarbonylsulfamoyl)furan-2-carboxamide] |  |  | > 100 | 0.386 | 0.314 |
| COCC(=O)NS(=O)(=O)c1ccc(C(=O)N[C@H]2CC3(C2)C[C@H](c2nc4cc(Cl)ccc4o2)C3)o1 (single isomer, unassigned) [Example 73, (Sa)—N-[6-(5-chloro-1,3-benzoxazol-2-yl)spiro[3.3]heptan-2-yl]-5-[(2-methoxyacetyl)sulfamoyl]furan-2-carboxamide, or (Ra)—N-[6-(5-chloro-1,3-benzoxazol-2-yl)spiro[3.3]heptan-2-yl]-5-[(2-methoxyacetyl)sulfamoyl]furan-2-carboxamide] |  |  | > 100 | 0.256 | 0.416 |
| CCOC(=O)NS(=O)(=O)c1ccc(C(=O)N[C@H]2CC3(C2)C[C@H](c2nc4cc(Cl)ccc4o2)C3)o1 (single isomer, unassigned) [Example 74, (Sa)-ethyl N-[[5-[[6-(5-chloro-1,3-benzoxazol-2-yl)spiro[3.3]heptan-2-yl]carbamoyl]-2-furyl]sulfonyl]carbamate, or (Ra)-ethyl N-[[5-[[6-(5-chloro-1,3-benzoxazol-2-yl)spiro[3.3]heptan-2-yl]carbamoyl]-2-furyl]sulfonyl]carbamate] |  |  | > 10 | 5.92 | 6.67 |
| COC(=O)CCC(=O)NS(=O)(=O)c1ccc(C(=O)N[C@H]2CC3(C2)C[C@H](c2nc4cc(Cl)ccc4o2)C3)o1 (single isomer, unassigned) [Example 75, (Sa)-methyl 4-[[5-[[6-(5-chloro-1,3-benzoxazol-2-yl)spiro[3.3]heptan-2-yl]carbamoyl]-2-furyl]sulfonylamino]-4-oxo-butanoate, or (Ra)-methyl 4-[[5-[[6-(5-chloro-1,3-benzoxazol-2-yl)spiro[3.3]heptan-2-yl]carbamoyl]-2-furyl]sulfonylamino]-4-oxo-butanoate] |  |  | > 10 | 1.69 | 2.49 |
| O=C(N[C@H]1CC2(C1)C[C@H](c1nc3cc(Cl)ccc3o1)C2)c1ccc(S(=O)(=O)NC(=O)C23CC(C2)C3)o1 (single isomer, unassigned) [Example 76, (Sa)-5-(bicyclo[1.1.1]pentane-1-carbonylsulfamoyl)-N-[6-(5-chloro-1,3-benzoxazol-2-yl)spiro[3.3]heptan-2-yl]furan-2-carboxamide, or (Ra)-5-(bicyclo[1.1.1]pentane-1-carbonylsulfamoyl)-N-[6-(5-chloro-1,3-benzoxazol-2-yl)spiro[3.3]heptan-2-yl]furan-2-carboxamide] |  |  | > 10 | 1.99 | 2.84 |
| COCCOCC(=O)NS(=O)(=O)c1ccc(C(=O)N[C@H]2CC3(C2)C[C@H](c2nc4cc(Cl)ccc4o2)C3)o1 (single isomer, unassigned) [Example 78, (Sa)—N-[6-(5-chloro-1,3-benzoxazol-2-yl)spiro[3.3]heptan-2-yl]-5-[[2-(2-methoxyethoxy)acetyl]sulfamoyl]furan-2-carboxamide, or (Ra)—N-[6-(5-chloro-1,3-benzoxazol-2-yl)spiro[3.3]heptan-2-yl]-5-[[2-(2-methoxyethoxy)acetyl]sulfamoyl]furan-2-carboxamide] |  |  | > 100 | 0.929 | 2.45 |
